Drawing on US9376392B2, “2-(tert-butoxy)-2-(7-methylquinolin-6-yl) acetic acid derivatives for treating AIDS” (Gilead Sciences, Inc., priority 2012, dated 2016), this text covers EC50 for ten compounds.

Molecules are shown by their SMILES.

In the first experiment the test system is HIV-IIIb (MT-4 cells). Kind of experiment: Test A: Antiviral Assays in MT4 Cells. The format is cell-based. As to conditions: MT4, 120 h, MT-4 cells infected with HIV-IIIb, 5 days of incubation, CellTiter-Glo readout. On the procedure:
The antiviral properties of a compound disclosed herein may be determined using Test A described below.
Test A: Antiviral Assays in MT4 Cells
For the antiviral assay utilizing MT-4 cells, 0.4 μL of […] test concentration of 3-fold serially diluted compound in DMSO was added to 40 μL of cell growth medium (RPMI 1640, 10% FBS, 1% penicillin/Streptomycin, 1% L-Glutamine, 1% HEPES) in each well of 384-well assay plates (10 concentrations) in quadruplicate.
1 mL aliquots of 2×10e6 MT-4 cells are pre-infected for 1 and 3 hrs respectively, @ 37° C. with 25 μL (MT4) or of either cell growth medium (mock-infected) or a fresh 1:250 dilution of an HIV-IIIb concentrated ABI stock (0.004 m.o.i. for MT4 cells). Infected and uninfected cells are diluted in cell growth medium and 35 μL of 2000 (for MT4) cells is added to each well of the assay plates.
Assay plates were then incubated in a 37° C. incubator. After 5 days of incubation, […] 2× concentrated CellTiter-Glo™ Reagent (catalog #G7573, Promega Biosciences, Inc., Madison, Wis.) was added to each well of the assay plate. Cell lysis was carried out by incubating at room temperature for 2-3 min and then chemiluminescence was read using the Envision reader (PerkinElmer).
(In general: ATP-based viability assays read luminescence as a measure of living cells.)
By EC50 is commonly meant the midpoint of the concentration-response curve. Low values mean greater potency, high ones weaker potency. Regarding `Cc1cc2nc(OCc3ccccc3S(C)(=O)=O)ccc2c(-c2ccc3c4c(ccnc24)CCO3)c1[C@H](OC(C)(C)C)C(=O)O` (atropisomer, axis not shown) [Example 10, (S)-2-tert-Butoxy-2-((R)-5-(2,3-dihydropyrano[4,3,2-de]quinolin-7-yl)-7-methyl-2-(2-(methylsulfonyl)benzyloxy)quinolin-6-yl)acetic acid], the EC50 stood at 8.63 nM.
The same measure, in the same setting: for `Cc1cc2nc(OCc3ccc(S(N)(=O)=O)cc3)ccc2c(-c2ccc3c4c(ccnc24)CCO3)c1[C@H](OC(C)(C)C)C(=O)O` (atropisomer, axis not shown) [Example 17, (S)-2-tert-Butoxy-2-((R)-5-(2,3-dihydropyrano[4,3,2-de]quinolin-7-yl)-7-methyl-2-(4-sulfamoylbenzyloxy)quinolin-6-yl)acetic acid] the value was 84 nM; for `Cc1cc2c(ccc(=O)n2Cc2cncc(C(F)(F)F)c2)c(-c2ccc3c4c(ccnc24)CCO3)c1[C@H](OC(C)(C)C)C(=O)O` (atropisomer, axis not shown) [Example 31, (S)-2-tert-Butoxy-2-((R)-5-(2,3-dihydropyrano[4,3,2-de]quinolin-7-yl)-7-methyl-2-oxo-1-((5-(trifluoromethyl)pyridin-3-yl)methyl)-1,2-dihydroquinolin-6-yl)acetic acid], 68.2 nM.
Same read-out and setting: for `CC(=O)Nc1ccc2c(-c3ccc4c5c(ccnc35)CCO4)c([C@H](OC(C)(C)C)C(=O)O)c(C)cc2n1` (atropisomer, axis not shown) [Example 48, (S)-2-((R)-2-Acetamido-5-(2,3-dihydropyrano[4,3,2-de]quinolin-7-yl)-7-methylquinolin-6-yl)-2-tert-butoxyacetic acid] the value was 361 nM; for `Cc1cc2c(ccc(=O)n2Cc2cc(F)cc(C(F)(F)F)c2)c(-c2ccc3c4c(ccnc24)CCO3)c1[C@H](OC(C)(C)C)C(=O)O` (atropisomer, axis not shown) [Example 27, (S)-2-tert-Butoxy-2-((R)-5-(2,3-dihydropyrano[4,3,2-de]quinolin-7-yl)-1-(3-fluoro-5-(trifluoromethyl)benzyl)-7-methyl-2-oxo-1,2-dihydroquinolin-6-yl)acetic acid], 53.5 nM; for `Cc1cc2c(ccc(=O)n2-c2cccc(NS(C)(=O)=O)c2)c(-c2ccc3c4c(ccnc24)CCO3)c1[C@H](OC(C)(C)C)C(=O)O` (atropisomer, axis not shown) [Example 36, (S)-2-tert-Butoxy-2-((R)-5-(2,3-dihydropyrano[4,3,2-de]quinolin-7-yl)-7-methyl-1-(3-(methylsulfonamido)phenyl)-2-oxo-1,2-dihydroquinolin-6-yl)acetic acid], 37400 nM.
Same read-out and setting: for `Cc1ccc2c(-c3ccc4c5c(ccnc35)CCO4)c([C@H](OC(C)(C)CCc3ccccc3)C(=O)O)c(C)cc2n1` (atropisomer, axis not shown) [Example 38, (2S)-2-((R)-5-(2,3-Dihydropyrano[4,3,2-de]quinolin-7-yl)-2,7-dimethylquinolin-6-yl)-2-(2-methyl-4-phenylbutan-2-yloxy)acetic acid] the value was 38.1 nM; for `Cc1cc2nc(OCc3cccc(OC(F)(F)F)c3)ccc2c(-c2ccc3c4c(ccnc24)CCO3)c1[C@H](OC(C)(C)C)C(=O)O` (atropisomer, axis not shown) [Example 14, (S)-2-tert-Butoxy-2-((R)-5-(2,3-dihydropyrano[4,3,2-de]quinolin-7-yl)-7-methyl-2-(3-(trifluoromethoxy)benzyloxy)quinolin-6-yl)acetic acid], 217 nM.

Still in this experiment, the particulars now being: MT-4 cells infected with HIV-IIIb, 5 days of incubation, CellTiter-Glo readout.
Consider `CCC(C)(CC)O[C@H](C(=O)O)c1c(C)cc2nc(C)ccc2c1-c1ccc2c3c(ccnc13)CCO2` (atropisomer, axis not shown) [Example 42, (S)-2-((S)-5-(2,3-Dihydropyrano[4,3,2-de]quinolin-7-yl)-2,7-dimethylquinolin-6-yl)-2-(3-methylpentan-3-yloxy)acetic acid], for which a half-maximal effect (EC50) was put at 5630 nM.
On the same count and under the same terms, for `CCC(C)(C)O[C@H](C(=O)O)c1c(C)cc2nc(C)ccc2c1-c1ccc2c3c(ccnc13)CCO2` (atropisomer, axis not shown) [Example 44, (S)-2-((R)-5-(2,3-Dihydropyrano[4,3,2-de]quinolin-7-yl)-2,7-dimethylquinolin-6-yl)-2-(tert-pentyloxy)acetic acid] the value was 11.7 nM.
